Experimental data from ChEMBL document CHEMBL1201862, “PubChem BioAssay data set” (2004).
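Step 1: Grow cells in 96-well plates. Step 2: Expose to compound for 48 hours at 5 concentrations. Step 3: Interpolate endpoints linearly; if unreached, use highest concentration. GI50 = concentration required for 50% inhibition of growth.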 Activity calls are given as the source filed them. No stated cut-off is given here; in the data, active = GI50 up to about 1.1 µM and inactive = higher.

What was measured:
Experiment in all cases: NCI anticancer screen, dose series, 48 h
HT-29 = test system: HT-29
MOLT-4 = test system: MOLT-4
MDA-N = test system: MDA-N
OVCAR-8 = test system: OVCAR-8
M14 = test system: M14
TK-10 = test system: TK-10
MDA-MB-435 = test system: MDA-MB-435
SK-MEL-28 = test system: SK-MEL-28
OVCAR-4 = test system: OVCAR-4
K562 = test system: K562
LOX IMVI = test system: LOX IMVI
ACHN = test system: ACHN
RPMI-8226 = test system: RPMI-8226
SNB-19 = test system: SNB-19
UO-31 = test system: UO-31
PC-3 = test system: PC-3
RXF 393 = test system: RXF 393
KM12 = test system: KM12
UACC-62 = test system: UACC-62
UACC-257 = test system: UACC-257

Measured: GI50

Cn1c(=O)c2nc(SCCN3CCOCC3)[nH]c2n(C)c1=S
inactive: HT-29 > 100 µM | MOLT-4 > 100 µM | MDA-N > 100 µM | OVCAR-8 > 100 µM | M14 > 100 µM | TK-10 > 100 µM | MDA-MB-435 > 100 µM | SK-MEL-28 > 100 µM | OVCAR-4 > 100 µM | K562 > 100 µM | LOX IMVI > 100 µM | ACHN > 100 µM | RPMI-8226 > 100 µM | SNB-19 > 100 µM | UO-31 > 100 µM | PC-3 > 100 µM | RXF 393 > 100 µM | KM12 > 100 µM | UACC-62 > 100 µM | UACC-257 > 100 µM

O=C(NCCCN1CCN(CCCNC(=O)c2cc(-c3ccccc3)nc3ccccc23)CC1)c1cc(-c2ccccc2)nc2ccccc12
inactive: HT-29 3.63 µM | MOLT-4 14 µM | MDA-N 5.64 µM | OVCAR-8 12.2 µM | M14 2.28 µM | TK-10 27.3 µM | MDA-MB-435 4.15 µM | SK-MEL-28 2.05 µM | OVCAR-4 17.8 µM | K562 5.02 µM | LOX IMVI 2.86 µM | ACHN 15.4 µM | RPMI-8226 7.8 µM | SNB-19 14.1 µM | UO-31 9.18 µM | PC-3 9.62 µM | RXF 393 > 30.9 µM | KM12 26.3 µM | UACC-62 15.9 µM | UACC-257 2.29 µM

CCOC(=O)CCC(NC(=O)OCc1ccccc1)C(=O)NNC(=O)OC(C)(C)C (stereo not given)
inactive: HT-29 > 100 µM | MOLT-4 > 100 µM | MDA-N > 100 µM | OVCAR-8 > 100 µM | M14 > 100 µM | TK-10 > 100 µM | MDA-MB-435 > 100 µM | SK-MEL-28 > 100 µM | OVCAR-4 > 100 µM | K562 > 100 µM | LOX IMVI > 100 µM | ACHN > 100 µM | RPMI-8226 > 100 µM | SNB-19 > 100 µM | UO-31 > 100 µM | PC-3 > 100 µM | RXF 393 > 100 µM | KM12 > 100 µM | UACC-62 > 100 µM | UACC-257 > 100 µM

CCOP(=O)(OCC)[C@H](O)c1ccsc1
inactive: HT-29 > 100 µM | MOLT-4 > 100 µM | MDA-N > 100 µM | OVCAR-8 > 100 µM | M14 > 100 µM | TK-10 > 100 µM | MDA-MB-435 > 100 µM | SK-MEL-28 > 100 µM | OVCAR-4 > 100 µM | K562 > 100 µM | LOX IMVI > 100 µM | ACHN > 100 µM | RPMI-8226 > 100 µM | SNB-19 > 100 µM | UO-31 > 100 µM | PC-3 > 100 µM | RXF 393 > 100 µM | KM12 > 100 µM | UACC-62 > 100 µM | UACC-257 > 100 µM

CC(C)=CCC[C@@H](C)C1=C(O)C(=O)C(C)=C(Nc2ccccc2)C1=O
inactive: HT-29 31.3 µM | MOLT-4 6.82 µM | MDA-N 28.4 µM | OVCAR-8 9.18 µM | M14 14.9 µM | TK-10 29 µM | MDA-MB-435 27.7 µM | SK-MEL-28 43 µM | OVCAR-4 19.3 µM | K562 13.2 µM | LOX IMVI 20.6 µM | ACHN 13.5 µM | RPMI-8226 43.2 µM | SNB-19 31.4 µM | UO-31 14.5 µM | PC-3 23.9 µM | RXF 393 19.2 µM | KM12 22.8 µM | UACC-62 13 µM | UACC-257 28.1 µM
